Measured values taken from ChEMBL document CHEMBL1821675, “The selective P-TEFb inhibitor CAN508 targets angiogenesis” (Eur J Med Chem, 2011).
The source made the active and inactive calls. The calls are words filed in the database; no cut-off is given here.

Assays:
[1] = target: Interleukin-1 receptor-associated kinase 4 (Homo sapiens) (UniProt Q9NWZ3); assay: Inhibition of IRAK4 assessed as residual activity at 10 uM by radioactivity assay in presence of 20 uM ATP
[2] = target: Mitogen-activated protein kinase kinase kinase 7 (Homo sapiens) (UniProt O43318); assay: Inhibition of TAK1 assessed as residual activity at 10 uM by radioactivity assay in presence of 5 uM ATP
[3] = test system: DU-145; assay: Cytotoxicity against human DU145 cells; assay type: functional
[4] = target: Serine/threonine-protein kinase N2 (Homo sapiens) (UniProt Q16513); assay: Inhibition of PRK2 assessed as residual activity at 10 uM by radioactivity assay in presence of 5 uM ATP
[5] = test system: NCI-H23; assay: Cytotoxicity against human NCI-H23 cells; assay type: functional
[6] = test system: OVCAR-3; assay: Cytotoxicity against human OVCAR3 cells; assay type: functional
[7] = target: MAP kinase-activated protein kinase 2 (Homo sapiens) (UniProt P49137); assay: Inhibition of MAPKAP-K2 assessed as residual activity at 10 uM by radioactivity assay in presence of 20 uM ATP
[8] = target: Ribosomal protein S6 kinase alpha-5 (Homo sapiens) (UniProt O75582); assay: Inhibition of MSK1 assessed as residual activity at 10 uM by radioactivity assay in presence of 20 uM ATP
[9] = test system: HMEC-1; assay: Antiangiogenic activity in VEGF-stimulated HMEC1 assessed as reduction in tube nodes after 16 hrs by photographic analysis; assay type: functional; details: Homo sapiens
[10] = Antiangiogenic activity in VEGF-stimulated HMEC1 assessed as reduction in total length of tube at 20 uM after 16 hrs by photographic analysis; assay type: functional, Homo sapiens, HMEC-1; design: scale not given: the % may be the effect or the level left
[11] = target: Maternal embryonic leucine zipper kinase (Homo sapiens) (UniProt Q14680); assay: Inhibition of MELK assessed as residual activity at 10 uM by radioactivity assay in presence of 50 uM ATP
[12] = test system: SN12C; assay: Cytotoxicity against human SN12C cells; assay type: functional
[13] = target: Homeodomain-interacting protein kinase 3 (Homo sapiens) (UniProt Q9H422); assay: Inhibition of HIPK3 assessed as residual activity at 10 uM by radioactivity assay in presence of 20 uM ATP
[14] = target: Homeodomain-interacting protein kinase 2 (Homo sapiens) (UniProt Q9H2X6); assay: Inhibition of HIPK2 assessed as residual activity at 10 uM by radioactivity assay in presence of 5 uM ATP
[15] = test system: HCC 2998; assay: Cytotoxicity against human HCC2998 cells; assay type: functional
[16] = target: Serine/threonine-protein kinase BRSK2 (Homo sapiens) (UniProt Q8IWQ3); assay: Inhibition of BRSK2 assessed as residual activity at 10 uM by radioactivity assay in presence of 50 uM ATP
[17] = Antiangiogenic activity in VEGF-stimulated HMEC1 assessed as reduction in median length of tube at 40 uM after 16 hrs by photographic analysis; assay type: functional, Homo sapiens, HMEC-1; design: scale not given: the % may be the effect or the level left
[18] = test system: COLO 205; assay: Cytotoxicity against human COLO205 cells; assay type: functional
[19] = target: Serine/threonine-protein kinase PAK 5 (Homo sapiens) (UniProt Q9P286); assay: Inhibition of PAK5 assessed as residual activity at 10 uM by radioactivity assay in presence of 20 uM ATP
[20] = Inhibition of PKA assessed as residual activity at 10 uM by radioactivity assay in presence of 20 uM ATP
[21] = target: Serine/threonine-protein kinase MARK2 (Homo sapiens) (UniProt Q7KZI7); assay: Inhibition of MARK2 assessed as residual activity at 10 uM by radioactivity assay in presence of 20 uM ATP
[22] = target: RAC-beta serine/threonine-protein kinase (Homo sapiens) (UniProt P31751); assay: Inhibition of PKBbeta assessed as residual activity at 10 uM by radioactivity assay in presence of 50 uM ATP
[23] = test system: TK-10; assay: Cytotoxicity against human TK10 cells; assay type: functional
[24] = test system: SK-MEL-2; assay: Cytotoxicity against human SK-MEL-2 cells; assay type: functional
[25] = target: Serine/threonine-protein kinase Chk2 (Homo sapiens) (UniProt O96017); assay: Inhibition of CHK2 assessed as residual activity at 10 uM by radioactivity assay in presence of 20 uM ATP
[26] = test system: HCT-116; assay: Cytotoxicity against human HCT116 cells; assay type: functional
[27] = test system: MCF7; assay: Decrease in VEGF expression in human MCF7 cells at >10 uM after 24 hrs by sandwich ELISA; assay type: functional, cell-based
[28] = target: Insulin-like growth factor 1 receptor (Homo sapiens) (UniProt P08069); assay: Inhibition of IGF-1R assessed as residual activity at 10 uM by radioactivity assay in presence of 5 uM ATP
[29] = target: Serine/threonine-protein kinase TBK1 (Homo sapiens) (UniProt Q9UHD2); assay: Inhibition of TBK1 assessed as residual activity at 10 uM by radioactivity assay in presence of 50 uM ATP
[30] = target: Mitogen-activated protein kinase 14 (Homo sapiens) (UniProt Q16539); assay: Inhibition of p38alpha MAPK assessed as residual activity at 10 uM by radioactivity assay in presence of 50 uM ATP
[31] = target: Ribosomal protein S6 kinase beta-1 (Homo sapiens) (UniProt P23443); assay: Inhibition of S6K1 assessed as residual activity at 10 uM by radioactivity assay in presence of 20 uM ATP
[32] = Antiproliferative activity against HMEC1 cells assessed as decrease in cell viability at >50 uM within 72 hrs by calcein AM staining-based fluorescence assay; details: human, hmec-1, 72 h
[33] = test system: HUVEC; assay: Antiproliferative activity against HUVEC cells assessed as decrease in cell viability at 10 to 40 uM within 72 hrs by calcein AM staining-based fluorescence assay; details: human
[34] = test system: SNB-75; assay: Cytotoxicity against human SNB75 cells; assay type: functional
[35] = test system: NCI-H522; assay: Cytotoxicity against human NCI-H522 cells; assay type: functional
[36] = target: Mitogen-activated protein kinase kinase kinase 9 (Homo sapiens) (UniProt P80192); assay: Inhibition of MLK1 assessed as residual activity at 10 uM by radioactivity assay in presence of 20 uM ATP
[37] = test system: HOP-92; assay: Cytotoxicity against human HOP92 cells; assay type: functional
[38] = test system: RXF 393; assay: Cytotoxicity against human RXF393 cells; assay type: functional
[39] = target: Tyrosine-protein kinase CSK (Homo sapiens) (UniProt P41240); assay: Inhibition of CSK assessed as residual activity at 10 uM by radioactivity assay in presence of 20 uM ATP
[40] = target: Tyrosine-protein kinase JAK2 (Homo sapiens) (UniProt O60674); assay: Inhibition of JAK2 assessed as residual activity at 10 uM by radioactivity assay in presence of 5 uM ATP
[41] = target: Casein kinase I isoform delta (Homo sapiens) (UniProt P48730); assay: Inhibition of CK1delta assessed as residual activity at 10 uM by radioactivity assay in presence of 20 uM ATP
[42] = test system: BT-549; assay: Cytotoxicity against human BT549 cells; assay type: functional

Chain of Interleukin-1 receptor-associated kinase 4 (Homo sapiens) (Q9NWZ3 whole entry): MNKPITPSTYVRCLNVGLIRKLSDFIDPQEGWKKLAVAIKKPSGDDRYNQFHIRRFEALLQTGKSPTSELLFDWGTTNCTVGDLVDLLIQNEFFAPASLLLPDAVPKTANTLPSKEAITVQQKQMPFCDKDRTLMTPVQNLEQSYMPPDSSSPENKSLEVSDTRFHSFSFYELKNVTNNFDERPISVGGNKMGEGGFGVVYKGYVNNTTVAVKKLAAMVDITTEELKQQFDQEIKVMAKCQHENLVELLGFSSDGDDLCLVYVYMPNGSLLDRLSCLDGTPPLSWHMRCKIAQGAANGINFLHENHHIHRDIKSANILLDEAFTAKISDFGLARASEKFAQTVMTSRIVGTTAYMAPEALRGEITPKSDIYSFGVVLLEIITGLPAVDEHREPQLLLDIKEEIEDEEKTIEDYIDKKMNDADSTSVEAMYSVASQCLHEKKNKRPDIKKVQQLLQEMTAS
Chain of Ribosomal protein S6 kinase beta-1 (Homo sapiens) (P23443 whole entry, looked up): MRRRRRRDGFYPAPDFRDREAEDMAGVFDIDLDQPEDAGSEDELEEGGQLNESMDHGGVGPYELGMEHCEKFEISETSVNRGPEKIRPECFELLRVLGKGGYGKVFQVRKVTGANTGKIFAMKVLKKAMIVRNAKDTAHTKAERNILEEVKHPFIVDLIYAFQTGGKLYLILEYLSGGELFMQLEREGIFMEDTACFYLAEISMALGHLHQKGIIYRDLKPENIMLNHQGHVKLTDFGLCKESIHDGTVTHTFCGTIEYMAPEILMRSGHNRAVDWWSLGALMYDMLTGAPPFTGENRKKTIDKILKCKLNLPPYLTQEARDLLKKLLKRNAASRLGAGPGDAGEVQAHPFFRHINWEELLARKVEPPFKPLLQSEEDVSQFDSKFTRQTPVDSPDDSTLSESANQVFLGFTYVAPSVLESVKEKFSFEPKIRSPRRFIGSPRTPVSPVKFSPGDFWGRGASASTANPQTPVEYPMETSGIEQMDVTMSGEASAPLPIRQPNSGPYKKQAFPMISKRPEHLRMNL
Chain of Maternal embryonic leucine zipper kinase (Homo sapiens) (Q14680 whole entry, looked up): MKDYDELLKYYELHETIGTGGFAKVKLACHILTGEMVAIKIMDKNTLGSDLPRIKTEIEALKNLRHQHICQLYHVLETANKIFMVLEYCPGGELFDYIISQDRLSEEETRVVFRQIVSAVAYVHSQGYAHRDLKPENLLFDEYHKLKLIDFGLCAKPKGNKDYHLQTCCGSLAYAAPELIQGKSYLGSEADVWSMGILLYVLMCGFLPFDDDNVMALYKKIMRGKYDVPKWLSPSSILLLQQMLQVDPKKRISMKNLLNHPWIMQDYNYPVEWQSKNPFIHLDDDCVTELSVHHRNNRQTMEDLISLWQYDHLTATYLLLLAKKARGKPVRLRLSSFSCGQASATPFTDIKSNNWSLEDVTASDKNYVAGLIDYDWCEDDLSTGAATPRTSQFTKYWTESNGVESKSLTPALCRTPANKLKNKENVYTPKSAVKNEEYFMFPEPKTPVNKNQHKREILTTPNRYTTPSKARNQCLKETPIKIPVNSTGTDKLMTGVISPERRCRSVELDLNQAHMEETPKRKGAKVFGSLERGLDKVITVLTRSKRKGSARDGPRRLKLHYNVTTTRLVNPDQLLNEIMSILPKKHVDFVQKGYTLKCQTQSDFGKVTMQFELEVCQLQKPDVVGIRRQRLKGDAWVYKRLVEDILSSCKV
Chain of Homeodomain-interacting protein kinase 2 (Homo sapiens) (Q9H2X6 whole entry, looked up): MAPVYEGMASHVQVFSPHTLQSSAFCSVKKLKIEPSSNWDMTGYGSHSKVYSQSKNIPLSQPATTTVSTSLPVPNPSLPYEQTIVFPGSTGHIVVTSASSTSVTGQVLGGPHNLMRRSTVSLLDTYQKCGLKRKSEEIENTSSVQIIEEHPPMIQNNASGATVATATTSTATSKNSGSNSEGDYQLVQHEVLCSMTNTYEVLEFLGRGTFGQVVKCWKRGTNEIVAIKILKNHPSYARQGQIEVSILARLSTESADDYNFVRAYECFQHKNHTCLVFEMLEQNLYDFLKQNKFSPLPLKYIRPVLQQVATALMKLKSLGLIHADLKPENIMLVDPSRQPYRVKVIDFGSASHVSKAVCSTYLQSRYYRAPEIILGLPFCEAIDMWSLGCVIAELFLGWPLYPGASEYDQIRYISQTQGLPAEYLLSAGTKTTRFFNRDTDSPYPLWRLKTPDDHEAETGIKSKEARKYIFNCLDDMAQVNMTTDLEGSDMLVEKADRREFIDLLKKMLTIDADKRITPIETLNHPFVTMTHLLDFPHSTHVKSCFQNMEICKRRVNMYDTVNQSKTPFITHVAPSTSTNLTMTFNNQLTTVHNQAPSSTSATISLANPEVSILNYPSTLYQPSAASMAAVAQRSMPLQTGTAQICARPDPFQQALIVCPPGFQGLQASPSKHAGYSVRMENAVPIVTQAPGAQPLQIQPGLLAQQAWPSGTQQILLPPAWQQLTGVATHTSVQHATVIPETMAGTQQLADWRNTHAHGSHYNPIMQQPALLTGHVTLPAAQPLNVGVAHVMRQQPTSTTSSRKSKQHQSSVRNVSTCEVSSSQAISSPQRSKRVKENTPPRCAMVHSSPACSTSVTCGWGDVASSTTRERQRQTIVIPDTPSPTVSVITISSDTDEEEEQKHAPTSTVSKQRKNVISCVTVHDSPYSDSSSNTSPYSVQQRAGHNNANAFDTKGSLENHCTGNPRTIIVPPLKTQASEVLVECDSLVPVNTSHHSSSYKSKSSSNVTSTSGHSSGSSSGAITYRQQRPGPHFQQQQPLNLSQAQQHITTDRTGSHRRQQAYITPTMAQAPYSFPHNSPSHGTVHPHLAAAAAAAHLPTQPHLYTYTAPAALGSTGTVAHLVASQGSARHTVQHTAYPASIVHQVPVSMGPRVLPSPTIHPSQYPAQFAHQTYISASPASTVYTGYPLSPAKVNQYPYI
Chain of Tyrosine-protein kinase JAK2 (Homo sapiens) (O60674 whole entry, canonical isoform): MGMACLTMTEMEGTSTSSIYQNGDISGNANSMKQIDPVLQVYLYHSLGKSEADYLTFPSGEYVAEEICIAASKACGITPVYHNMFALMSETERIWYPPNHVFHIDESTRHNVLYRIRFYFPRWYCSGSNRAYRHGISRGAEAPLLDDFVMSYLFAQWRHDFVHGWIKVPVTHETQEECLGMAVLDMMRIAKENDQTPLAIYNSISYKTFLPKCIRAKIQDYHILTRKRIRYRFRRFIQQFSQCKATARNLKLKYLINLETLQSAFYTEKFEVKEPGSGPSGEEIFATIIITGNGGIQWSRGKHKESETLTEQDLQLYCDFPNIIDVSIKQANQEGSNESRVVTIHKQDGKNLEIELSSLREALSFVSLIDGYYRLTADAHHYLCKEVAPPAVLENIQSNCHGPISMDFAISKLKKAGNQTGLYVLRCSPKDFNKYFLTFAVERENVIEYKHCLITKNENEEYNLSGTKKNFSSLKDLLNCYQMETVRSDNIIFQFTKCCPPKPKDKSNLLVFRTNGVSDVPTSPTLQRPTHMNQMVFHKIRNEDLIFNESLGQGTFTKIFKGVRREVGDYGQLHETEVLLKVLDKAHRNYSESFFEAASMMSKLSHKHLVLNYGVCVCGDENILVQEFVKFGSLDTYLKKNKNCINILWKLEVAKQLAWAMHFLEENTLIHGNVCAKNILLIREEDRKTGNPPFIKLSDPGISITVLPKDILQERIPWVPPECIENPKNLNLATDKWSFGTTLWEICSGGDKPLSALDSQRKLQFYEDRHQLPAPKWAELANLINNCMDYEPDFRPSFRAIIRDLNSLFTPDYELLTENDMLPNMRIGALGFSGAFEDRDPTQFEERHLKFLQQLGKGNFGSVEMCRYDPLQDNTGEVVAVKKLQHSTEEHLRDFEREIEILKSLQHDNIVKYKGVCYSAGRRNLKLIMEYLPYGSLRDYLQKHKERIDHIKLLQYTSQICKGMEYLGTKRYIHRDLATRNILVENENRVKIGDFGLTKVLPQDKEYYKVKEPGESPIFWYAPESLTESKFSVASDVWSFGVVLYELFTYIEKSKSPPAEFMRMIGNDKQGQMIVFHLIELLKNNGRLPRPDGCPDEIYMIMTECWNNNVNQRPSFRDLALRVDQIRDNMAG
Chain of Mitogen-activated protein kinase kinase kinase 9 (Homo sapiens) (P80192 whole entry, looked up): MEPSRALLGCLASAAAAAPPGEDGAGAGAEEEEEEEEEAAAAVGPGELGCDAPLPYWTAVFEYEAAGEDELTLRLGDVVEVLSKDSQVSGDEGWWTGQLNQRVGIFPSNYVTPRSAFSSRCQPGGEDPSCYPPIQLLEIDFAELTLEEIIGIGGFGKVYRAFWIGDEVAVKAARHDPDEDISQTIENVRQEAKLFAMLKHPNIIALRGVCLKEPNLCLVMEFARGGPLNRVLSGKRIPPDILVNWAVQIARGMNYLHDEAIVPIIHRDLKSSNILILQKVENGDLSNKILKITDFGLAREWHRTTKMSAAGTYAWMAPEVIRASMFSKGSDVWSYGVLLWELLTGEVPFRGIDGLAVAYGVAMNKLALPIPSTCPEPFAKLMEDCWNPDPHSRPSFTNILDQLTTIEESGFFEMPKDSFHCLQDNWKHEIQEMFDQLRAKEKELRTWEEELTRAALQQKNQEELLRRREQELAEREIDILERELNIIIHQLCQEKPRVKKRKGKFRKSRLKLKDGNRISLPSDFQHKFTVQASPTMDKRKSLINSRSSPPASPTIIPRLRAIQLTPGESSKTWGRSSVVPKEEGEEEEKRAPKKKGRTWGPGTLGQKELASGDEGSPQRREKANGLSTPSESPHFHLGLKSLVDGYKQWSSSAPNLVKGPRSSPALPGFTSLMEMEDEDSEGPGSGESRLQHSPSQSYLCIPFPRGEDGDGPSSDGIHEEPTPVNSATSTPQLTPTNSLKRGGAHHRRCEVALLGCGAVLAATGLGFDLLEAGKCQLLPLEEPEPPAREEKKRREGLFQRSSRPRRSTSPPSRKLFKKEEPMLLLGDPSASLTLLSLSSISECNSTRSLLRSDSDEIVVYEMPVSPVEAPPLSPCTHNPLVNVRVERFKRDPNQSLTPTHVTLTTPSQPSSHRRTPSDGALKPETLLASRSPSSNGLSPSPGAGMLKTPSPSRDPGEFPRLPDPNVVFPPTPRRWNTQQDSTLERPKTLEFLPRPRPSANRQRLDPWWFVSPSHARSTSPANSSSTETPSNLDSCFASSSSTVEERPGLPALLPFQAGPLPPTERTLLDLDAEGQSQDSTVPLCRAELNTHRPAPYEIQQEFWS

`Nc1n[nH]c(N)c1/N=N/c1ccc(O)cc1` showed an Activity [1] of 58%, an Activity [2] of 53% and a GI50 [3] of 17 µM. It also gave an Activity [4] of 30%, a GI50 [5] of 19.1 µM and a GI50 [6] of 22.8 µM. The Activity [7] was 26%, the Activity [8] was 88% and the Activity [9] was “inactive”. The Activity [10] was 20%, the Activity [11] was 46% and the GI50 [12] was 23.3 µM. It also gave an Activity [13] of 84%, an Activity [14] of 44% and a GI50 [15] of 29.4 µM. It also gave an Activity [16] of 62%, an Activity [17] of 50% and a GI50 [18] of 18.9 µM. The Activity [19] was 88%, the Activity [20] was 63% and the Activity [21] was 79%. For the same compound, the Activity [22] was 56%, the GI50 [23] was 25.6 µM and the GI50 [24] was 14.4 µM. For the same compound, the Activity [25] was 57%, the GI50 [26] was 18.9 µM and the Activity [27] was “Active”. The Activity [28] was 48%, the Activity [29] was 55% and the Activity [30] was 101%. For the same compound, the Activity [31] was 79%, the Activity [32] was “Non-toxic” and the Activity [33] was “Non-toxic”. For the same compound, the GI50 [34] was 18.5 µM, the GI50 [35] was 24.3 µM and the Activity [36] was 39%. It also gave a GI50 [37] of 18.2 µM, a GI50 [38] of 18.4 µM and an Activity [39] of 105%. The Activity [40] was 19%, the Activity [41] was 27% and the GI50 [42] was 14 µM.
